Test results as given in patent publication US20230263822A1, “MODULATION OF FACTOR 11 EXPRESSION” (Ionis Pharmaceuticals, Inc., priority 2008, published 2023).

How the values were obtained:
[1] = parameters: species or system CD1 mice; details: mouse, in vivo
Experimental: Five mice from each group were sacrificed 3 days, 28 days and 56 days following the final dose. Livers were harvested for analysis.
The concentration of the full-length oligonucleotide as well as the total oligonucleotide concentration (including the degraded form) was measured. The method used is a modification of previously published methods (Leeds et al., 1996; Geary et al., 1999) which consist of a phenol-chloroform (liquid-liquid) extraction followed by a solid phase extraction. An internal standard (ISIS 355868, a 27-mer 2′-O-methoxyethyl modified phosphorothioate oligonucleotide, […], designated herein as SEQ ID NO: 270) was added prior to extraction. […] Half-lives were then calculated using WinNonlin software ([…]).
The results are presented in Tables 68 and 69, expressed as μg/g liver tissue.

human Factor 11 mRNA = test: Dose-dependent inhibition of human Factor 11 in HepG2 cells, electroporation 625-20,000 nM (Example 5); assay type: cell-based; details: ~16 hours
Experimental: The gapmers were also transfected via electroporation and their dose dependent inhibition of human Factor 11 mRNA was measured. Cells were plated at a density of 20,000 cells per well and transfected via electroporation with 625 nM, 1250 nM, 2500 nM, 5,000 nM, 10,000 nM, and 20,000 nM concentrations of antisense oligonucleotide, as specified in Table 12. After a treatment period of approximately 16 hours, RNA was isolated from the cells and human Factor 11 mRNA levels were measured by quantitative real-time PCR. Human Factor 11 primer probe set RTS 2966 was used to measure mRNA levels. Factor 11 mRNA levels were adjusted according to total RNA content, as measured by RIBOGREEN. Results are presented as percent inhibition of human Factor 11, relative to untreated control cells.

Substance	Half-Life in the liver [1]	percent inhibition of human Factor 11 mRNA relative to untreated control cells (human Factor 11 mRNA; 625 nM)	percent inhibition of human Factor 11 mRNA relative to untreated control cells (human Factor 11 mRNA; 1250 nM)	percent inhibition of human Factor 11 mRNA relative to untreated control cells (human Factor 11 mRNA; 2500 nM)	percent inhibition of human Factor 11 mRNA relative to untreated control cells (human Factor 11 mRNA; 5000 nM)	percent inhibition of human Factor 11 mRNA relative to untreated control cells (human Factor 11 mRNA; 10000 nM)	percent inhibition of human Factor 11 mRNA relative to untreated control cells (human Factor 11 mRNA; 20000 nM)
416826 (antisense ATGCCCTTCATGTCTAGGTC; 5-10-5 gapmer, further chemistry not given here) [compound 416826]	13 days	67%	82%	89%	92%	95%	97%
416925 (antisense GGTGCACAGTTTCTGGCAGG; 3-14-3 gapmer chemistry, further chemistry not given here) [compound 416925]	12 days	64%	80%	88%	91%	95%	96%
416864 (antisense GGCAGCGGACGGCATTGGTG; 5-10-5 gapmer, further chemistry not given here) [compound 416864]	13 days	45%	74%	84%	87%	92%	94%
